From ChEMBL document CHEMBL4118257, “Discovery of 2-(3,5-difluoro-4-methylsulfonaminophenyl)propanamides as potent TRPV1 antagonists” (Bioorg Med Chem Lett, 2018)

How the values were obtained:
[1] = target: T1, Transient receptor potential cation channel subfamily V member 1 (Homo sapiens, UniProt Q8NER1); experiment: Antagonist activity at recombinant human TRPV1 expressed in CHOK1 cells assessed as reduction in capsaicin-induced Ca2+ flux after 15 mins by fluo-4-based FLIPR assay; assay type: cell-based
T1 sequence (Q8NER1 whole entry): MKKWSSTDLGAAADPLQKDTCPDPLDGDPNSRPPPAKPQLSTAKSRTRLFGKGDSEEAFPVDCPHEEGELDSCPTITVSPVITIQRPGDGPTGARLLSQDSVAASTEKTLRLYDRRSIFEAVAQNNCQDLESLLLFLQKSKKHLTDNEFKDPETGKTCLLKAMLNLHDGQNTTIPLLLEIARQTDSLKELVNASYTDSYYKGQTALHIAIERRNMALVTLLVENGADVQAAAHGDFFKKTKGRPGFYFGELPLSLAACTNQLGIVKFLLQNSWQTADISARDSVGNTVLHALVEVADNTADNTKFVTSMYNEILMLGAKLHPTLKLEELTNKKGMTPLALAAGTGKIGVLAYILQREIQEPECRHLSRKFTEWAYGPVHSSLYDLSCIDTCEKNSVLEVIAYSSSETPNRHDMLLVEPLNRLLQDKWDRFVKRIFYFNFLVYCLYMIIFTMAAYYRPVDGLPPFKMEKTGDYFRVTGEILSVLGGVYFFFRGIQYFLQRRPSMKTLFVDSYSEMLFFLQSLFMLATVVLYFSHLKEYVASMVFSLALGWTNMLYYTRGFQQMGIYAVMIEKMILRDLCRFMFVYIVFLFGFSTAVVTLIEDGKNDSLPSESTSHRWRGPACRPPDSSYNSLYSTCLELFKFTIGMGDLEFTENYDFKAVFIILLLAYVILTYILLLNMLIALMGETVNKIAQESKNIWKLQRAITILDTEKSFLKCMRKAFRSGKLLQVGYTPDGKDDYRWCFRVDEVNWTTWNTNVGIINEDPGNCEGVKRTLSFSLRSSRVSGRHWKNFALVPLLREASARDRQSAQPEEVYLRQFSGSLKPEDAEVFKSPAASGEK

[2] = target: T1, Transient receptor potential cation channel subfamily V member 1; experiment: Antagonist activity at recombinant human TRPV1 expressed in CHOK1 cells assessed as reduction in low pH-induced Ca2+ flux after 15 mins by fluo-4-based FLIPR assay; assay type: cell-based
[3] = target: T1, Transient receptor potential cation channel subfamily V member 1; experiment: Antagonist activity at recombinant human TRPV1 expressed in CHOK1 cells assessed as reduction in temperature-induced Ca2+ flux after 15 mins at 45 degC by fluo-4-based FLIPR assay; assay type: cell-based
[4] = target: Transient receptor potential cation channel subfamily V member 1 (Rattus norvegicus, UniProt O35433); experiment: Antagonist activity at recombinant rat TRPV1 expressed in HEK293 cells assessed as reduction in capsaicin-induced Ca2+ flux preincubated for 3 mins followed by capsaicin addition measured by calcium 4-dye based FLIPR assay; assay type: cell-based
Transient receptor potential cation channel subfamily V member 1 (Rattus norvegicus, UniProt O35433), sequence (O35433 whole entry): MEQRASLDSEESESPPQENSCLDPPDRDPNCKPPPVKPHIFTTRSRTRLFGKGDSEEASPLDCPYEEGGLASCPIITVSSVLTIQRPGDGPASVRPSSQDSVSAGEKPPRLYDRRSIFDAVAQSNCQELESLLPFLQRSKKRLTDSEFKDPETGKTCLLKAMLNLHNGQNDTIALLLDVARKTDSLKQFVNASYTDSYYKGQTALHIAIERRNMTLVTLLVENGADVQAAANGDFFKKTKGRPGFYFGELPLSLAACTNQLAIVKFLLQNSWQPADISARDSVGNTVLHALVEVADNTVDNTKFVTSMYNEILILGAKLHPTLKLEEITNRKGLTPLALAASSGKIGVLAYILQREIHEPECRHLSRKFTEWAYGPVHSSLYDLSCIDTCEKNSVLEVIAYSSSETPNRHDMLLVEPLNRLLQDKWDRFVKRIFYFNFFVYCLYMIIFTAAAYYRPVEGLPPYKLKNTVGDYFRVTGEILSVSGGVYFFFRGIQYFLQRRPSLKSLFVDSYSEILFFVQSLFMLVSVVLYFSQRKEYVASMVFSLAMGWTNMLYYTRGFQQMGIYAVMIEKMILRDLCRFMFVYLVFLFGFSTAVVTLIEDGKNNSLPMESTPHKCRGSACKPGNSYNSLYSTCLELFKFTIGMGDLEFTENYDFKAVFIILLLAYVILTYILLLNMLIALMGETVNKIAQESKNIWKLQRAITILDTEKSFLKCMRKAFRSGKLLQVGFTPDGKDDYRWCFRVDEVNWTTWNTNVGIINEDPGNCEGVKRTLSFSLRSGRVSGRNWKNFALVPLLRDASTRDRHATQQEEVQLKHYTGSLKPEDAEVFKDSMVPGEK

Rattus norvegicus [5] = experiment: In vivo antagonist activity at TRPV1 in rat assessed as reduction in capsaicin-induced hypothermia at 3 mg/kg, po relative to control; assay type: functional
Rattus norvegicus [6] = experiment: In vivo antagonist activity at TRPV1 in rat assessed as reduction in capsaicin-induced hypothermia at 10 mg/kg, po relative to control; assay type: functional
Mus musculus [7] = experiment: Analgesic activity in formalin-induced pain mouse model assessed reduction in pain response at 3 mg/kg, iv measured at 20 to 30 mins post administration by formalin test relative to control; assay type: functional
Mus musculus [8] = experiment: Toxicity in formalin-induced pain mouse model assessed as hyperthermia at 10 mg/kg, po; assay type: organism-based; settings: in vivo

SMILES	Ki ([1]; read-out: Ki) [nM]	also measured
C=CC(=O)N(c1ccc(C(C)C(=O)NCc2ccc(C(F)(F)F)nc2N2CCC(C)CC2)cc1F)S(C)(=O)=O (stereo not drawn)	2.4	
CC1CCN(c2nc(C(F)(F)F)ccc2CNC(=O)C(C)c2ccc(NS(C)(=O)=O)c(Cl)c2)CC1 (stereo not drawn)	2.3	
CC1CCN(c2nc(C(F)(F)F)ccc2CNC(=O)C(C)c2ccc(NS(C)(=O)=O)c(Br)c2)CC1 (stereo not drawn)	3.2	
CC1CCN(c2nc(C(F)(F)F)ccc2CNC(=O)C(C)c2ccc(N(CC#N)S(C)(=O)=O)c(F)c2)CC1 (stereo not drawn)		Ki [1]: Not Active
CC1CCN(c2nc(C(F)(F)F)ccc2CNC(=O)C(C)c2ccc(NS(=O)(=O)C(F)(F)F)c(F)c2)CC1 (stereo not drawn)		Ki [1]: Not Active
CC1CCN(c2nc(C(F)(F)F)ccc2CNC(=O)C(C)c2ccc(NS(N)(=O)=O)c(F)c2)CC1 (stereo not drawn)	2.7	

The next lines start with results.

Ki ([1]; read-out: Ki) [nM]	SMILES	also measured
0.7	CC1CCN(c2nc(C(F)(F)F)ccc2CNC(=O)C(C)c2cc(F)c(NS(C)(=O)=O)c(Br)c2)CC1 (stereo not drawn)	
0.3	COc1cc(C(C)C(=O)NCc2ccc(C(F)(F)F)nc2N2CCC(C)CC2)cc(F)c1NS(C)(=O)=O (stereo not drawn)	
0.8	COc1cc(C(C)C(=O)NCc2ccc(C(F)(F)F)nc2N2CCC(C)CC2)ccc1NS(C)(=O)=O (stereo not drawn)	
1.6	COc1cc(C(C)C(=O)NCc2ccc(C(F)(F)F)nc2N2CCC(C)CC2)cc(OC)c1NS(C)(=O)=O (stereo not drawn)	
0.2	CC1CCN(c2nc(C(F)(F)F)ccc2CNC(=O)C(C)c2cc(F)c(NS(C)(=O)=O)c(F)c2)CC1 (stereo not drawn)	IC50 [2]: 8.7 nM; IC50 [3]: 8.1 nM; Ki [4]: 0.1 nM; inhibition in vivo at 3 mg/kg (Rattus norvegicus [5]): 57%; inhibition in vivo at 10 mg/kg (Rattus norvegicus [6]): 100%; inhibition in vivo at 3 mg/kg (Mus musculus [7]): 43%; Activity (Mus musculus [8]): Toxic
